Measurements: publication PMC6017171, “Comparative Evaluation of the Antioxidant and Anti-Alzheimer’s Disease Potential of Coumestrol and Puerarol Isolated from Pueraria lobata Using Molecular Modeling Studies” (Molecules : A Journal of Synthetic Chemistry and Natural …, 2018)
Entries after “also recorded” stand apart in the source; their conditions may differ. Like-named read-outs stand apart in the source and are kept apart here.

Experiments:
[1] = molecular target: T1, Electric eel AChE (Electrophorus electricus, UniProt O42275); assay: In vitro ChE enzyme assay (Ellman), AChE; type: biochemical
T1 construct: purchased Sigma-Aldrich Co. (St. Louis, MO, USA)
T1 sequence (O42275 24-633): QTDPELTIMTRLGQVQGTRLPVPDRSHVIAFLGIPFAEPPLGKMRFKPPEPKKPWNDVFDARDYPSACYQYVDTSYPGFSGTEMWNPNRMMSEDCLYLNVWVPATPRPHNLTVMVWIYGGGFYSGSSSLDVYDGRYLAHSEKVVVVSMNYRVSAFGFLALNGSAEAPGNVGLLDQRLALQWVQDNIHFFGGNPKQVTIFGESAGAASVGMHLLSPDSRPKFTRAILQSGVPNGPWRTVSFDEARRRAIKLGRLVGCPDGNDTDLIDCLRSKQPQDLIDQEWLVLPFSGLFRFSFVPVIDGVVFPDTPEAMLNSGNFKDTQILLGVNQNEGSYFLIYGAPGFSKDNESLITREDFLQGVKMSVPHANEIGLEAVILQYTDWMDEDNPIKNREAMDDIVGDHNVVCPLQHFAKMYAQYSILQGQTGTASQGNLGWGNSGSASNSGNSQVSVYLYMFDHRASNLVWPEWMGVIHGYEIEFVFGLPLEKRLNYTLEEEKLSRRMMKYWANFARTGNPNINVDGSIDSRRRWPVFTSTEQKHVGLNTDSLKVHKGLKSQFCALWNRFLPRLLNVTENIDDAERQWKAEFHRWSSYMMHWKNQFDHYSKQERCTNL
Method: (§1) Electric eel AChE (EC 3.1.1.7), horse serum BChE (EC 3.1.1.8), acetylthiocholine iodide (ATCh), butyrylthiocholine chloride (BTCh), 5,5-dithiobis[2-nitrobenzoic acid] […] All required reagent-grade chemicals used in this study were purchased from commercial sources. Coumestrol and puerarol were isolated from P. lobata as described by Seong et al..
(§2) The inhibitory activity of coumestrol and puerarol against ChEs was measured using the spectrophotometric methods reported by Ellman et al. and Jung et al.. ATCh and BTCh were used as substrates to assay the inhibition of AChE and BChE, respectively. All reactions were performed in triplicate and were recorded in a 96-well microplate format using a microplate spectrophotometer (Molecular Devices, Sunnyvale, CA, USA). Percent inhibition was calculated as (1 − S/E) × 100, where E and S were the enzyme activities without and with the test sample, respectively.

[2] = DPPH radical scavenging activity; details: mean ± S.E.M of triplicate experiments
Method: DPPH radical scavenging activity was evaluated using the method of Blois, with slight modification. Test samples and DPPH were dissolved in methanol. Each test sample (160 µL) at various concentrations was added to 40 µL of DPPH solution (1.5 × 10^−4 M). After gently mixing and standing at room temperature for 30 min, the optical density of the reactant was measured at 520 nm using a VERSAmax microplate spectrophotometer (Molecular Devices, Sunnyvale, CA, USA). […] L-Ascorbic acid was used as a positive control.

[3] = ONOO− scavenging activity (DHR 123 oxidation); details: mean ± S.E.M of triplicate experiments; read-out: EC50 Peroxynitrite scavenging
Method: In brief, the rhodamine buffer (pH 7.4) consisted of 50 mM sodium phosphate dibasic, 50 mM sodium phosphate monobasic, 90 mM sodium chloride, 5.0 mM potassium chloride, and 100 μM diethylenetriamine pentaacetate. […] The assay buffer was prepared prior to use and placed on ice. Test samples were dissolved in 10% DMSO (100 μM final concentration). The background and final fluorescent intensities were measured 5 min after treatment with and without the addition of authentic ONOO^− (10 μM), dissolved in 0.3 N sodium hydroxide. […] L-penicillamine was used as a positive control.

[4] = Western blot analysis for inhibition of ONOO−-mediated nitrotyrosine formation (BSA nitration)
Method: Figure 2 Dose-depended inhibition of ONOO^−-mediated albumin nitration by coumestrol and puerarol. Mixtures of test samples, bovine serum albumin (BSA), and ONOO^− were incubated with shaking at 37 °C for 30 min. The reactant was resolved in 10% polyacrylamide gel via electrophoresis. (a) Coumestrol; and (b) puerarol, were used at the indicated concentrations; (c) Quantification of band intensity was calculated using CS Analyzer 3.00 (ATTO Corp., Tokyo, Japan). ^# p < 0.05 indicates a significant difference from the untreated normal group, * p < 0.05 indicate significant differences from the ONOO^− treated control.
The inhibition of ONOO^−-nitrotyrosine formation was evaluated using the method of Aulak et al.. Samples were added to BSA and mixed with ONOO^− (200 µM). After a 10 min incubation period (room temperature), the sample solution was added to Bio-Rad 2X Laemmli Sample buffer with mercaptoethanol and then boiled for 7 min. The reactant was resolved in 10% polyacrylamide gel via electrophoresis and transferred to PVDF membranes. Pre-stained blue protein markers were used for molecular weight determination. […] Densitometric analysis of the western blot results was determined using a CS analyzer v3.00 (ATTO Corp.).

[5] = molecular target: T2, horse serum BChE (Equus caballus, UniProt P81908); assay: In vitro ChE enzyme assay (Ellman), BChE; type: biochemical; details: substrate BTCh; mean ± S.E.M of triplicate experiments
T2 construct: horse serum BChE (EC 3.1.1.8); purchased Sigma-Aldrich Co. (St. Louis, MO, USA); host or cells: horse serum
T2 sequence (P81908 whole entry): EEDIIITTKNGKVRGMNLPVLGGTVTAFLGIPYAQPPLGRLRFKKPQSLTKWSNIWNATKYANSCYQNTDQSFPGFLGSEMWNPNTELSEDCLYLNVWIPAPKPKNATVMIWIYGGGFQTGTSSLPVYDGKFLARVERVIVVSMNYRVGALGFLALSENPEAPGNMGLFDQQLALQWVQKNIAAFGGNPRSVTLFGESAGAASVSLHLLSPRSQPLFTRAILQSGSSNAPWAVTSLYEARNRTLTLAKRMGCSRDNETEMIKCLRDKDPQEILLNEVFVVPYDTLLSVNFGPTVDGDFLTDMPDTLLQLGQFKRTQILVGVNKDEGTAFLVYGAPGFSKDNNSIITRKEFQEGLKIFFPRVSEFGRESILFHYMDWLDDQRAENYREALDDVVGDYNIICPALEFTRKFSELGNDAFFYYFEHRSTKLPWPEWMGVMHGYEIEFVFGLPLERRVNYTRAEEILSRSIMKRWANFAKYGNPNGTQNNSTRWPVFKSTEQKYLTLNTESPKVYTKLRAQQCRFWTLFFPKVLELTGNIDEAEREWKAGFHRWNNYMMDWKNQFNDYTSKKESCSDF
Method: as §1, §2

[6] = molecular target: T3, BACE1 (Homo sapiens, UniProt P56817); assay: In vitro BACE1 enzyme assay; type: biochemical; details: mean ± S.E.M of triplicate experiments
T3 construct: purchased
T3 sequence (P56817 46-501): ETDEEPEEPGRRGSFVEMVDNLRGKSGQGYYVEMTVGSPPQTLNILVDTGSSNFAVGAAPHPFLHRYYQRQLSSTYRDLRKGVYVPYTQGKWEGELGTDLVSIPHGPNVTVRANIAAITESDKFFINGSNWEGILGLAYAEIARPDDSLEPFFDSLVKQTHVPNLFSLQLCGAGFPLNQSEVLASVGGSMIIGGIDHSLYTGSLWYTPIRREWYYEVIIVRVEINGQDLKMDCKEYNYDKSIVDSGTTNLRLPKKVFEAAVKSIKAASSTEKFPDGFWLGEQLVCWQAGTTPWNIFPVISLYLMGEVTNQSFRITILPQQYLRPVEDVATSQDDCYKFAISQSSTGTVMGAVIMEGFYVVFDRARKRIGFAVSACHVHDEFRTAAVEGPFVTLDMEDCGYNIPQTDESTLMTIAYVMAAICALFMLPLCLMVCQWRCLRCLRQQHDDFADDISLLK
Method: The in vitro BACE1 enzyme assay was carried out according to the manufacturer’s recommended protocol with minor modifications. Briefly, a mixture of […] of assay buffer (50 mM sodium acetate, pH 4.5), […] of BACE1 (1.0 U/mL), […] of substrate (750 nM Rh-[…]-Quencher in 50 mM, ammonium bicarbonate) and […] of the test sample was dissolved in 10% DMSO and incubated for 60 min at 25 °C in the dark. Proteolysis of the two fluorophores (Rh-[…]-Quencher) by BACE1 was determined by monitoring formation of the fluorescent donor (Rh-EVNL) at wavelengths of 545 nm for excitation and 585 nm for emission. Fluorescence was measured with a microplate spectrofluorometer (Gemini EM, Sunnyvale, CA, USA).

[7] = molecular target: T1, Electric eel AChE; assay: Enzyme kinetic analysis for AChE inhibition (Lineweaver-Burk and secondary plots); type: biochemical; details: for Inhibition mode, AChE: Lineweaver-Burk plots
Method: (§3) To elucidate the mechanisms of ChE inhibition, kinetic studies of enzyme activity were performed. The slope or intercept in Lineweaver-Burk plots were drawn in SigmaPlot 12.0 as a function of inhibitor concentration, and the kinetic parameters were determined.
(§4) To determine the mechanism of inhibition, AChE, BChE, and BACE1 inhibition was evaluated by monitoring the effects of different concentrations of substrate (0.4 to 0.8 mM for AChE and BChE; 250 to 750 nM for BACE1). Specifically, AChE, BChE, and BACE1 inhibition assays were performed as described above, but the substrate concentration was varied. Inhibition modes of coumestrol and puerarol against ChEs and BACE1 were determined by Lineweaver–Burk plots. Inhibition constants (Ki) were determined by secondary plots.

[8] = molecular target: T2, horse serum BChE; assay: Enzyme kinetic analysis for BChE inhibition (Lineweaver-Burk and secondary plots); type: biochemical; details: for Inhibition mode, BChE: Lineweaver-Burk plots; for Ki: secondary plot
Method: as §3, §4

[9] = cited from earlier work
[10] = molecular target: T3, BACE1; assay: Enzyme kinetic analysis for BACE1 inhibition (Lineweaver-Burk and secondary plots); type: biochemical; details: for Inhibition mode, BACE1: Lineweaver-Burk plots; for Ki: secondary plot
Method: as §3, §4

[11] = substrate ATCh, mean ± S.E.M of triplicate experiments, read-out: IC50 AChE

COc1ccc2cc3[n+](cc2c1OC)CCc1cc2c(cc1-3)OCO2 [Berberine, berberine chloride, reference compound]
IC50 [1]: 2.22 ± 0.02 µM

O=c1oc2cc(O)ccc2c2oc3cc(O)ccc3c12 [Coumestrol]
EC50 [2]: 54 ± 1 µM
EC50 [3]: 1.17 ± 0.11 µM
Blot intensity of ONOO−-mediated nitrated BSA ([4]; 10 µM to 100 µM): dose dependent decrease
IC50 [1, 11]: 42.3 ± 1.29 µM
IC50 [5]: 24.6 ± 2.28 µM
IC50 [6]: 51 ± 1.86 µM
Inhibition mode, AChE [7]: Competitive
Inhibition mode, AChE ([7]; listed as coumestrol): competitive
Ki ([7]; secondary plot, binding constant of inhibitor with free enzyme, read-out: Ki value Kic, AChE): 48.9 µM
Inhibition mode, BChE [8]: Mixed-type
Inhibition mode, BChE ([8]; listed as coumestrol): mixed type
Ki ([8]; binding constant of inhibitor with enzyme-substrate complex, read-out: Ki value Kiu, BChE): 41.9 µM
Ki ([8]; binding constant of inhibitor with free enzyme, read-out: Ki value Kic, BChE): 12.1 µM
DPPH scavenging ([9]; ref 29 (Booth et al.)): inactivity

O=C1O[C@H]([C@@H](O)CO)C(O)=C1O [L-Ascorbic acid, reference compound]
EC50 [2]: 17.4 ± 0.32 µM

CC(C)=CCCC(C)=CCc1cc2c(cc1O)oc(=O)c1c3ccc(O)cc3oc21 [Puerarol]
EC50 [2]: 82.5 ± 1.33 µM
EC50 [3]: 6.99 ± 0.3 µM
Blot intensity of ONOO−-mediated nitrated BSA ([4]; 50–200 µM): dose dependent decrease
IC50 [1, 11]: 145 ± 2.46 µM
IC50 [5]: > 200 µM
IC50 [6]: 28.2 ± 2.48 µM
Inhibition mode, BACE1 [10]: Mixed-type ^e
Inhibition mode, BACE1 ([10]; listed as puerarol): mixed inhibition; also recorded: mixed type
Ki ([10]; binding constant of inhibitor with enzyme-substrate complex, read-out: Ki value Kiu, BACE1): 73.2 µM
Ki ([10]; binding constant of inhibitor with free enzyme, read-out: Ki value Kic, BACE1): 33.8 µM

COc1cc(O)c2c(c1)oc(=O)c1c3cc(O)c(O)cc3oc21 [wedelolactone, reference compound]
IC50 ([9]; read-out: DPPH scavenging activity IC50): 7 µM
